Assay results reported in PubChem BioAssay (NCI).
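Compound exposure: 48 hours, 5 concentrations, 96-well plates. The concentration for 50% growth inhibition is given as GI50. TGI marks complete inhibition of growth.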

How the values were obtained:
Experiment in all cases: growth of human tumour cells (NCI), 48 h
786-0 renal = test system: 786-0 renal
A498 renal = test system: A498 renal
A549 NSCLC = test system: A549 NSCLC
ACHN renal = test system: ACHN renal
BT-549 breast = test system: BT-549 breast
CAKI-1 renal = test system: CAKI-1 renal
CCRF-CEM leukemia = test system: CCRF-CEM leukemia
COLO 205 colon = test system: COLO 205 colon
DU-145 prostate = test system: DU-145 prostate
HCC-2998 colon = test system: HCC-2998 colon
HCT-116 colon = test system: HCT-116 colon
HCT-15 colon = test system: HCT-15 colon
HL-60(TB) leukemia = test system: HL-60(TB) leukemia
HOP-62 NSCLC = test system: HOP-62 NSCLC
HS 578T breast = test system: HS 578T breast
HT29 colon = test system: HT29 colon
IGROV1 ovarian = test system: IGROV1 ovarian
K-562 leukemia = test system: K-562 leukemia
KM12 colon = test system: KM12 colon
M14 melanoma = test system: M14 melanoma
MALME-3M melanoma = test system: MALME-3M melanoma
MCF7 breast = test system: MCF7 breast
MDA-MB-231 breast = test system: MDA-MB-231 breast
MDA-MB-435 = test system: MDA-MB-435
MOLT-4 leukemia = test system: MOLT-4 leukemia
NCI-H226 lung = test system: NCI-H226 lung
NCI-H23 lung = test system: NCI-H23 lung
NCI-H460 lung = test system: NCI-H460 lung
NCI-H522 lung = test system: NCI-H522 lung
NCI/ADR-RES ovarian = test system: NCI/ADR-RES ovarian
OVCAR-3 ovarian = test system: OVCAR-3 ovarian
OVCAR-4 ovarian = test system: OVCAR-4 ovarian
OVCAR-5 ovarian = test system: OVCAR-5 ovarian
OVCAR-8 ovarian = test system: OVCAR-8 ovarian
PC-3 prostate = test system: PC-3 prostate
RPMI-8226 leukemia = test system: RPMI-8226 leukemia
RXF 393 renal = test system: RXF 393 renal
SF-268 CNS = test system: SF-268 CNS
SF-295 CNS = test system: SF-295 CNS
SF-539 CNS = test system: SF-539 CNS
SK-MEL-28 melanoma = test system: SK-MEL-28 melanoma
SK-MEL-5 melanoma = test system: SK-MEL-5 melanoma
SK-OV-3 ovarian = test system: SK-OV-3 ovarian
SN12C renal = test system: SN12C renal
SNB-19 CNS = test system: SNB-19 CNS
SNB-75 CNS = test system: SNB-75 CNS
SR leukemia = test system: SR leukemia
SW-620 colon = test system: SW-620 colon
T-47D breast = test system: T-47D breast
TK-10 renal = test system: TK-10 renal
UACC-257 melanoma = test system: UACC-257 melanoma
UACC-62 melanoma = test system: UACC-62 melanoma
UO-31 renal = test system: UO-31 renal

CN(C)CCNc1cccc2sc3ccc(O)cc3c(=O)c12
GI50 (786-0 renal): 2.23 µM | TGI (786-0 renal): 6.28 µM | GI50 (A498 renal): 10.8 µM | TGI (A498 renal): 24.1 µM | GI50 (A549 NSCLC): 0.643 µM | TGI (A549 NSCLC): 5.54 µM | GI50 (ACHN renal): 1.43 µM | TGI (ACHN renal): 3.78 µM | GI50 (BT-549 breast): 9.2 µM | TGI (BT-549 breast): 23.5 µM | GI50 (CAKI-1 renal): 2.22 µM | TGI (CAKI-1 renal): 13.3 µM | GI50 (CCRF-CEM leukemia): 0.777 µM | TGI (CCRF-CEM leukemia): 6.61 µM | GI50 (COLO 205 colon): 3.92 µM | TGI (COLO 205 colon): 15.3 µM | GI50 (DU-145 prostate): 1.12 µM | TGI (DU-145 prostate): 11.2 µM | GI50 (HCC-2998 colon): 1.56 µM | TGI (HCC-2998 colon): 3.1 µM | GI50 (HCT-116 colon): 2.12 µM | TGI (HCT-116 colon): 9.68 µM | GI50 (HCT-15 colon): 1.43 µM | TGI (HCT-15 colon): 5.09 µM | GI50 (HL-60(TB) leukemia): 1.53 µM | TGI (HL-60(TB) leukemia): 3.74 µM | GI50 (HOP-62 NSCLC): 2.29 µM | TGI (HOP-62 NSCLC): 6.58 µM | GI50 (HS 578T breast): 1.75 µM | TGI (HS 578T breast): 11.8 µM | GI50 (HT29 colon): 1.63 µM | TGI (HT29 colon): 4.08 µM | GI50 (IGROV1 ovarian): 3.13 µM | TGI (IGROV1 ovarian): 12.5 µM | GI50 (K-562 leukemia): 2.4 µM | TGI (K-562 leukemia): 5.6 µM | GI50 (KM12 colon): 3.22 µM | TGI (KM12 colon): 14.3 µM | GI50 (M14 melanoma): 1.85 µM | TGI (M14 melanoma): 4.33 µM | GI50 (MALME-3M melanoma): 1.59 µM | TGI (MALME-3M melanoma): 3.13 µM | GI50 (MCF7 breast): 1.14 µM | TGI (MCF7 breast): 2.96 µM | GI50 (MDA-MB-231 breast): 1.48 µM | TGI (MDA-MB-231 breast): 3.72 µM | GI50 (MDA-MB-435): 1.49 µM | TGI (MDA-MB-435): 3.16 µM | GI50 (MOLT-4 leukemia): 0.483 µM | TGI (MOLT-4 leukemia): 2.81 µM | GI50 (NCI-H226 lung): 5.94 µM | TGI (NCI-H226 lung): 23.1 µM | GI50 (NCI-H23 lung): 4.03 µM | TGI (NCI-H23 lung): 17 µM | GI50 (NCI-H460 lung): 0.548 µM | TGI (NCI-H460 lung): 2.47 µM | GI50 (NCI-H522 lung): 1.77 µM | TGI (NCI-H522 lung): 5.66 µM | GI50 (NCI/ADR-RES ovarian): 3.14 µM | TGI (NCI/ADR-RES ovarian): 12.7 µM | GI50 (OVCAR-3 ovarian): 3.28 µM | TGI (OVCAR-3 ovarian): 11.5 µM | GI50 (OVCAR-4 ovarian): 2.75 µM | TGI (OVCAR-4 ovarian): 12.3 µM | GI50 (OVCAR-5 ovarian): 7.32 µM | TGI (OVCAR-5 ovarian): 22.8 µM | GI50 (OVCAR-8 ovarian): 2.16 µM | TGI (OVCAR-8 ovarian): 9.78 µM | GI50 (PC-3 prostate): 2.44 µM | TGI (PC-3 prostate): 13.4 µM | GI50 (RPMI-8226 leukemia): 1.84 µM | TGI (RPMI-8226 leukemia): 4.98 µM | GI50 (RXF 393 renal): 1.95 µM | TGI (RXF 393 renal): 7.38 µM | GI50 (SF-268 CNS): 3.18 µM | TGI (SF-268 CNS): 14.6 µM | GI50 (SF-295 CNS): 6.53 µM | TGI (SF-295 CNS): 22.3 µM | GI50 (SF-539 CNS): 1.77 µM | TGI (SF-539 CNS): 4.01 µM | GI50 (SK-MEL-28 melanoma): 1.74 µM | TGI (SK-MEL-28 melanoma): 3.88 µM | GI50 (SK-MEL-5 melanoma): 1.69 µM | TGI (SK-MEL-5 melanoma): 3.25 µM | GI50 (SK-OV-3 ovarian): 3.36 µM | TGI (SK-OV-3 ovarian): 14.4 µM | GI50 (SN12C renal): 2.54 µM | TGI (SN12C renal): 13.6 µM | GI50 (SNB-19 CNS): 4.04 µM | TGI (SNB-19 CNS): 17.4 µM | GI50 (SNB-75 CNS): 2.33 µM | TGI (SNB-75 CNS): 12.2 µM | GI50 (SR leukemia): 1.08 µM | TGI (SR leukemia): 4.37 µM | GI50 (SW-620 colon): 1.16 µM | TGI (SW-620 colon): 3.44 µM | GI50 (T-47D breast): 2.56 µM | TGI (T-47D breast): 12.8 µM | GI50 (TK-10 renal): 5.58 µM | TGI (TK-10 renal): 17.5 µM | GI50 (UACC-257 melanoma): 1.7 µM | TGI (UACC-257 melanoma): 3.21 µM | GI50 (UACC-62 melanoma): 1.43 µM | TGI (UACC-62 melanoma): 2.87 µM | GI50 (UO-31 renal): 1.16 µM | TGI (UO-31 renal): 3.58 µM
